One data set addresses T1, PI3Kγ (Homo sapiens, UniProt P48736).
T1 construct: purchased Millipore Ltd (Billerica, MA)
Particulars: cell free assay; reproduced from WO2015091685; read-out: PI3K gamma inhibition; cited from earlier work.

Data set [1] addresses T2, PI3Kδ (Homo sapiens, UniProt O00329).
T2 construct: purchased Millipore Ltd (Billerica, MA)
As to conditions: cell free assay; reproduced from WO2015091685; read-out: PI3K delta inhibition; cited from earlier work.

In another data set the target is T3, PI3Kα (Homo sapiens, UniProt P42336).
T3 construct: purchased Millipore Ltd (Billerica, MA)
Particulars: cell free assay; reproduced from WO2015091685; read-out: PI3K alpha inhibition; cited from earlier work.

In the next data set the target is T4, PI3Kβ (Homo sapiens, UniProt P42338).
T4 construct: purchased Millipore Ltd (Billerica, MA)
Particulars: cell free assay; reproduced from WO2015091685; read-out: PI3K beta inhibition; cited from earlier work.

Data set [2] has as its system PI3Kδ-AKT pathway endogenously expressed on THP-1 cells. Description: PI3Kδ enzyme inhibitory activity in the THP-1 assay (M-CSF stimulated pAKT, HTRF). Type of data set: cell-based. As to conditions: for IC50: Homo sapiens, THP-1 cells, M-CSF 2.5 ng/mL, pAKT Ser473, read-out: THP-1 IC50 nM Cellular; for Delta cell drop-off (Cellular/enzymatic activity = THP-1 IC50 nM/Delta Ki nM): ratio THP-1 IC50 / Delta Ki. Background: In TR-FRET formats the signal depends on donor and acceptor labels being close together.

Data set [3] has as its target T2, PI3Kδ. Description: PI3K enzyme inhibitory activity in the cell free assay (ADP-Glo Kinase Assay). Type of data set: biochemical. Particulars: cell free enzymatic assay; for IC50: ATP 80 μM, read-out: Enzymatic Delta IC50; for Ki: read-out: Enzymatic Delta Ki. (In ADP-Glo the light output rises with the ADP produced.)
Data set [4] concerns Ovalbumin (OVA) induced lung eosinophilia. The data set can be described thus: Rat model of ovalbumin (OVA) induced lung eosinophilia (WET administration, saline suspension i.t.). Type of data set: in vivo, Brown Norway rats.
A further data set is described as follows: Lung retention. Particulars: reason why not tested in OVA model.
The mark [5] stands for this setting: administered 12 h before OVA challenge, 0.1 μmol/kg (ED80) for compounds of the invention.

Like-named read-outs stand apart in the source and are kept apart here.

The values below come from US12527797B2, “Isochromene derivatives as phosphoinositide 3-kinases inhibitors” (CHIESI FARMACEUTICI S.P.A., priority 2019, dated 2026).

T2 sequence (O00329 whole entry): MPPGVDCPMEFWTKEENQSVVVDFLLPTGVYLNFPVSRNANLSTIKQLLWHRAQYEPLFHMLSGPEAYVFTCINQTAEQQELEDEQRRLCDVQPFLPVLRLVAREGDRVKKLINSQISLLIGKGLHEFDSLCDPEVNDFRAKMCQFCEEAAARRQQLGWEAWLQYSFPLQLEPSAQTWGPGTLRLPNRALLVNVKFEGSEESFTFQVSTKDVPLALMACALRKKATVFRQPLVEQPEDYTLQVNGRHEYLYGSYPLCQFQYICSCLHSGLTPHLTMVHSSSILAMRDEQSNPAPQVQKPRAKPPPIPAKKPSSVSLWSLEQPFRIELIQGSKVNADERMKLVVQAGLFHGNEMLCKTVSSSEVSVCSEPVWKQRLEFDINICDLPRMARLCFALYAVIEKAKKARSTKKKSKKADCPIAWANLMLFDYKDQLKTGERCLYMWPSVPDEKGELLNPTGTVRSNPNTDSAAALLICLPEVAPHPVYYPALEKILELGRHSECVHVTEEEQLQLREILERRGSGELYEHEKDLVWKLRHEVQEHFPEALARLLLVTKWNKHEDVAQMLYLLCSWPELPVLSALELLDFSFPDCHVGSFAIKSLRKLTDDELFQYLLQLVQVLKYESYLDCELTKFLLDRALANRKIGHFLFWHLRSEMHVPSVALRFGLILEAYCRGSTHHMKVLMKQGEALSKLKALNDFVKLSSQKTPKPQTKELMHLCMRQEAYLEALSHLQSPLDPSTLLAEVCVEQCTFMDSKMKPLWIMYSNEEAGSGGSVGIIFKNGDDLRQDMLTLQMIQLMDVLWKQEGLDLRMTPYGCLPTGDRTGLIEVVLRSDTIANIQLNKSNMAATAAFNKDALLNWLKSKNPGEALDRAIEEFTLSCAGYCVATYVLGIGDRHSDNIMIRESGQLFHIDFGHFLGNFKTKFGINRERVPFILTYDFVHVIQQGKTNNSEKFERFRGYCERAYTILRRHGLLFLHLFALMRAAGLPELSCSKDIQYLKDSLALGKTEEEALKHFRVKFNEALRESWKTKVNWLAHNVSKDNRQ
T2 sequence (P27986 whole entry partner): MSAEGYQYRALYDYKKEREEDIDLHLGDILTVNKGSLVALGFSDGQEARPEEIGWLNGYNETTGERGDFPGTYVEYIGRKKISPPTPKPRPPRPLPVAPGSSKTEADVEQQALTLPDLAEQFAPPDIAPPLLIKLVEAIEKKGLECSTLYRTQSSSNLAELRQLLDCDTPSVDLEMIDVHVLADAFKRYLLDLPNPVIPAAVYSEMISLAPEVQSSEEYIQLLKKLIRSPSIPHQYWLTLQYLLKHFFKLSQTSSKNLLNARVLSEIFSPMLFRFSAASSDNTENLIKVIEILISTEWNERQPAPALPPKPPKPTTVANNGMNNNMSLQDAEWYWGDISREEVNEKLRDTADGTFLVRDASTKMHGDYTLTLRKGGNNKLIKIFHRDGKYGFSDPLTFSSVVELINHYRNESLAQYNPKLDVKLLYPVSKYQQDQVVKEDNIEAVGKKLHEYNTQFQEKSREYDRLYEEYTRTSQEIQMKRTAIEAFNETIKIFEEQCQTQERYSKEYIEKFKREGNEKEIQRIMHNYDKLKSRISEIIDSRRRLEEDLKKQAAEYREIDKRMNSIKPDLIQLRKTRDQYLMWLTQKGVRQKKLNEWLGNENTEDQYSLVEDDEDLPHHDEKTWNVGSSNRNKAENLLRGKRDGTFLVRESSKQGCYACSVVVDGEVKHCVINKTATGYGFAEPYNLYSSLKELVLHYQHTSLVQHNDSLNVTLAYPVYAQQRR
T1 sequence (P48736 whole entry): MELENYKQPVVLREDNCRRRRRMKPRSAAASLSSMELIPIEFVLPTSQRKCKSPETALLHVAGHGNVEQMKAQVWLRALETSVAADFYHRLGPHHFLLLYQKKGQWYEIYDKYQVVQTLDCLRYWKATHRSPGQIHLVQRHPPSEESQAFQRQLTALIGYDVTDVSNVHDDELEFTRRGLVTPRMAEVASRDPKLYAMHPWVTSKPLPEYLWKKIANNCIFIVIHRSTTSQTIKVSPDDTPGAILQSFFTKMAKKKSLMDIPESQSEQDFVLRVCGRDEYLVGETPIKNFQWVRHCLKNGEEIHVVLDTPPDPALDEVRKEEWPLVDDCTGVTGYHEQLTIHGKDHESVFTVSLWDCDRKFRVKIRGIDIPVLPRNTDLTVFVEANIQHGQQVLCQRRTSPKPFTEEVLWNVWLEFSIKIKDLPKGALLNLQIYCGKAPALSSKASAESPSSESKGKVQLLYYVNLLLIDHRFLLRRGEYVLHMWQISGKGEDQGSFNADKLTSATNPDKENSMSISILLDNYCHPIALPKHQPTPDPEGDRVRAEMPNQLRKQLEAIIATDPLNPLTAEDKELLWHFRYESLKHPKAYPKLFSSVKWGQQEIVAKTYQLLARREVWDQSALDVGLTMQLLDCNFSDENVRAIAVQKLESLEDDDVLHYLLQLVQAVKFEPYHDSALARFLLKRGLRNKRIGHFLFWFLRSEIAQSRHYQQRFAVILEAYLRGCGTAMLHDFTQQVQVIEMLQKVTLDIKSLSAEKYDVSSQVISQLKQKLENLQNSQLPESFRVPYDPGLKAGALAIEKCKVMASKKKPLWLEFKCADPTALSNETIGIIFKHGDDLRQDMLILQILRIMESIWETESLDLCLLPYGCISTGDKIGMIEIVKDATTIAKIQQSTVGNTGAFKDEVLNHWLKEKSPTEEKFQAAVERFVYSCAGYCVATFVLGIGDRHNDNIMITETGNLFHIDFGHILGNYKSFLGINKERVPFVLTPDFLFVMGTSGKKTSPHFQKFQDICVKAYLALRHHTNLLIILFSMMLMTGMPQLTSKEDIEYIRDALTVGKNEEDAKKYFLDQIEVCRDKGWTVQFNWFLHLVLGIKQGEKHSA
T3 sequence (P42336 whole entry): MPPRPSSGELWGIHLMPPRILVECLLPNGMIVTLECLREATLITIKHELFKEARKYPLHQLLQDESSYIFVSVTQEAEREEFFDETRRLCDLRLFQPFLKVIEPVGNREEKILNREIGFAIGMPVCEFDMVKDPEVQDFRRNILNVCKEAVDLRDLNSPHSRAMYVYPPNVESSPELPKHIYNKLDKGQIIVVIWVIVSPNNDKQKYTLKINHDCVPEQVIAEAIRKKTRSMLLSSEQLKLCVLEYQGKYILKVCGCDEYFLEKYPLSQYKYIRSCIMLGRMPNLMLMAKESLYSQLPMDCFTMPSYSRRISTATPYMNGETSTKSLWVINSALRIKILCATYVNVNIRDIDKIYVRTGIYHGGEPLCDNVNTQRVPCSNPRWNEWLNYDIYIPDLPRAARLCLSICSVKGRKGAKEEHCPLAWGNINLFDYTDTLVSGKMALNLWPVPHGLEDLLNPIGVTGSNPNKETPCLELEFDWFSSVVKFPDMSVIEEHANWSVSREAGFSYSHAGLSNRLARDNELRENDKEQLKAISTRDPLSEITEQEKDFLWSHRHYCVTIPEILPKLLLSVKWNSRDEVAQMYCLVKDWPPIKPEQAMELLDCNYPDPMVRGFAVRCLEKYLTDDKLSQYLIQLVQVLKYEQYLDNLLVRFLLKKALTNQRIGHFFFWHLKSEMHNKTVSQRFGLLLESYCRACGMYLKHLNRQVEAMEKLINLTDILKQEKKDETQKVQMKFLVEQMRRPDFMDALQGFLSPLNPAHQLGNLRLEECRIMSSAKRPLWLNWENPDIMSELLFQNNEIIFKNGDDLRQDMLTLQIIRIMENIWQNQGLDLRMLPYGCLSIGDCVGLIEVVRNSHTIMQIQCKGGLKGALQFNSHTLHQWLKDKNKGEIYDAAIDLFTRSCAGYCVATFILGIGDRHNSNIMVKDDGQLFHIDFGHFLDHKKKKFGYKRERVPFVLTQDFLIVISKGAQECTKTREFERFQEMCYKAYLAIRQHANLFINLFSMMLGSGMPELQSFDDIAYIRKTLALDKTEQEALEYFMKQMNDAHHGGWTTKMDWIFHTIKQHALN
T4 sequence (P42338 whole entry): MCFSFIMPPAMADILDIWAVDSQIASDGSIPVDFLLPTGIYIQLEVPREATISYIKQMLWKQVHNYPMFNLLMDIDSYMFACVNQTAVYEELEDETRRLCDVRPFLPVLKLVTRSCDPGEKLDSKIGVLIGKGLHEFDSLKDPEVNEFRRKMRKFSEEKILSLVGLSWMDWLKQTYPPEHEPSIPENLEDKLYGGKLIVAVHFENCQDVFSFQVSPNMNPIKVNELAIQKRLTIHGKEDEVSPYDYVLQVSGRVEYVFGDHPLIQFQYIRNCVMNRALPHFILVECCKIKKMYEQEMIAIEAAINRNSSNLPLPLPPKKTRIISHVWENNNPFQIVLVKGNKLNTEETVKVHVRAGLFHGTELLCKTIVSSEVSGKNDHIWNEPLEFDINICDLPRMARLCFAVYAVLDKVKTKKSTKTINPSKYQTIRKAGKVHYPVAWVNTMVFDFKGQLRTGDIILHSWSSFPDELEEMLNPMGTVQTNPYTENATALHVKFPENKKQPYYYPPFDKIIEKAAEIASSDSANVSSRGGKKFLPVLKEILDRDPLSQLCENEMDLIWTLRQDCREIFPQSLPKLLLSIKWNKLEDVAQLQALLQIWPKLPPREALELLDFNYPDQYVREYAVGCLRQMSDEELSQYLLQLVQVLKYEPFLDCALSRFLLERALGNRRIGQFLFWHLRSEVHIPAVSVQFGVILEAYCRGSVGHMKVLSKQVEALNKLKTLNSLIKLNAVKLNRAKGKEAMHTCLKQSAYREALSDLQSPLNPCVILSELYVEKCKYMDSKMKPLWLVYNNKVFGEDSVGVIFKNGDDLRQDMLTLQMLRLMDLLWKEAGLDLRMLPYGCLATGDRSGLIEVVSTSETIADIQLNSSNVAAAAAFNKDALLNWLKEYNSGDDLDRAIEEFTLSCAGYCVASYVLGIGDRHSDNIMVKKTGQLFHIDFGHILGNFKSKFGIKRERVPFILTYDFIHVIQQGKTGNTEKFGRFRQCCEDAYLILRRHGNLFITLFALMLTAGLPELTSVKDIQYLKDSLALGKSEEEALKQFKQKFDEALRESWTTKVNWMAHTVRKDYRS

In the case of `CC(c1oc(=O)c2ccccc2c1-c1cccc(CN2CCN(C)CC2)c1)n1nc(-c2cc(O)cc(F)c2)c2c(N)ncnc21` (racemic) [Example 142, 3-(1-(4-amino-3-(3-fluoro-5-hydroxyphenyl)-1H-pyrazolo[3,4-d]pyrimidin-1-yl)ethyl)-4-(3-((4-methylpiperazin-1-yl)methyl)phenyl)-1H-isochromen-1-one], the IC50 is more than 1000 nM on PI3Kγ, less than 10 nM at PI3Kδ [1], more than 1000 nM on PI3Kα and more than 1000 nM at PI3Kβ.

For `CC(c1oc(=O)c2ccccc2c1-c1cccc(CN2CCN(C)CC2)c1)n1nc(-c2cc(O)cc(F)c2)c2c(N)ncnc21` (single isomer, unassigned) [Comparative example 1, 3-(1-(4-amino-3-(3-fluoro-5-hydroxyphenyl)-1H-pyrazolo[3,4-d]pyrimidin-1-yl)ethyl)-4-(3-((4-methylpiperazin-1-yl)methyl)phenyl)-1H-isochromen-1-one, reference compound], in data set [2], the IC50 came to 1.8 nM and the “Delta cell drop-off (Cellular/enzymatic activity = THP-1 IC50 nM/Delta Ki nM)” value was 1.6. On PI3Kδ [3], the IC50 stood at 2.2 nM and the Ki is 1.1 nM. Further, in data set [4] (setting [5]), the “% of inhibition (eosinophil recruitment in BALF)” value (“% of inhibition” below) is recorded as 0% (Not durable).

Consider `CC(c1oc(=O)c2ccccc2c1-c1ccccc1)n1nc(-c2cncc(O)c2)c2c(N)ncnc21` (single isomer, unassigned) [Comparative example 2, reference compound], for which, in data set [2], the IC50 is 1.6 nM. In addition, the lung retention result in the data set “Lung retention” is “Compound not even tested in OVA model for Insufficient lung retention****”.

For `CC(c1oc(=O)c2ccccc2c1-c1cccc(CN(C)C)c1)n1nc(-c2cc(O)cc(F)c2)c2c(N)ncnc21` (single isomer, unassigned) [Comparative example 3, reference compound], in data set [2], the IC50 amounted to 1.5 nM. In addition, the “% of inhibition” value in data set [4] (administered 2 h before OVA challenge, ns = non-significant) is 34% ns***.

As for `CC(c1oc(=O)c2ccccc2c1-c1cccc(CN2CCN(C)CC2)c1)n1nc(-c2cncc(O)c2)c2c(N)ncnc21` (single isomer, unassigned) [Example 1a, 3-{1-[4-Amino-3-(5-hydroxypyridin-3-yl)-1H-pyrazolo[3,4-d]pyrimidin-1-yl]ethyl}-4-{3-[(4-methylpiperazin-1-yl)methyl]phenyl}-1H-isochromen-1-one], in data set [2], the IC50 worked out at 2.8 nM and the “Delta cell drop-off (Cellular/enzymatic activity = THP-1 IC50 nM/Delta Ki nM)” value worked out at 3.1. Also, the “% of inhibition” value in data set [4] (setting [5]) came to 55%.

As for `CC(c1oc(=O)c2ccccc2c1-c1cccc(CN(C)C)c1)n1nc(-c2cncc(O)c2)c2c(N)ncnc21` (single isomer, unassigned) [Example 2a, 3-(1-(4-amino-3-(5-hydroxypyridin-3-yl)-1H-pyrazolo[3,4-d]pyrimidin-1-yl)ethyl)-4-(3-((dimethylamino)methyl)phenyl)-1H-isochromen-1-one], in data set [2], the IC50 amounted to 0.6 nM and the “Delta cell drop-off (Cellular/enzymatic activity = THP-1 IC50 nM/Delta Ki nM)” value was determined as 1.2. In addition, the “% of inhibition” value in data set [4] (setting [5]) is given as 57%.

With `CC(c1oc(=O)c2ccccc2c1-c1cccc([C@H]2CCCN2C)c1)n1nc(-c2cncc(O)c2)c2c(N)ncnc21` (single isomer, unassigned) [Example 4a], in data set [2], the IC50 was found to be 1 nM and the “Delta cell drop-off (Cellular/enzymatic activity = THP-1 IC50 nM/Delta Ki nM)” value came out at 10. At PI3Kδ [3], the IC50 came out at 0.3 nM and the Ki was found to be 0.1 nM.

For the compound `CC(c1oc(=O)c2ccccc2c1-c1ccc(Cl)c(CN(C)C)c1)n1nc(-c2cncc(O)c2)c2c(N)ncnc21` (stereo not drawn) [Example 3, 3-{1-[4-Amino-3-(5-hydroxypyridin-3-yl)-1H-pyrazolo[3,4-d]pyrimidin-1-yl]ethyl}-4-{4-chloro-3-[(dimethylamino)methyl]phenyl}-1H-isochromen-1-one], in data set [2], the IC50 came out at 3.9 nM and the “Delta cell drop-off (Cellular/enzymatic activity = THP-1 IC50 nM/Delta Ki nM)” value was 9.7. At PI3Kδ [3], the IC50 is 0.7 nM and the Ki worked out at 0.4 nM.

Turning to `CC(c1oc(=O)c2ccccc2c1-c1ccc(F)c(CN2CCN(C)CC2)c1)n1nc(-c2cncc(O)c2)c2c(N)ncnc21` (stereo not drawn) [Example 5, 3-{1-[4-Amino-3-(5-hydroxypyridin-3-yl)-1H-pyrazolo[3,4-d]pyrimidin-1-yl]ethyl}-4-{4-fluoro-3-[(4-methylpiperazin-1-yl)methyl]phenyl}-1H-isochromen-1-one], in data set [2], the IC50 came to 1.8 nM and the “Delta cell drop-off (Cellular/enzymatic activity = THP-1 IC50 nM/Delta Ki nM)” value was 3.6. Moreover, at PI3Kδ [3], the IC50 was 1 nM and the Ki came out at 0.5 nM.

`CC(c1oc(=O)c2ccccc2c1-c1cc(F)cc(CN2CCN(C)CC2)c1)n1nc(-c2cncc(O)c2)c2c(N)ncnc21` (stereo not drawn) [Example 6, 3-(1-(4-Amino-3-(5-hydroxypyridin-3-yl)-1H-pyrazolo[3,4-d]pyrimidin-1-yl)ethyl)-4-(3-fluoro-5-((4-methylpiperazin-1-yl)methyl)phenyl)-1H-isochromen-1-one]: in data set [2], the IC50 was 3 nM and the “Delta cell drop-off (Cellular/enzymatic activity = THP-1 IC50 nM/Delta Ki nM)” value amounted to 7.5. On PI3Kδ [3], the IC50 was 0.8 nM and the Ki came to 0.4 nM.

Turning to `CC(c1cccc(-c2c(C(C)n3nc(-c4cncc(O)c4)c4c(N)ncnc43)oc(=O)c3ccccc23)c1)N(C)C` (stereo not drawn) [Example 7, 3-(1-(4-Amino-3-(5-hydroxypyridin-3-yl)-1H-pyrazolo[3,4-d]pyrimidin-1-yl)ethyl)-4-(3-(1-(dimethylamino)ethyl)phenyl)-1H-isochromen-1-one], in data set [2], the IC50 is 3.9 nM and the “Delta cell drop-off (Cellular/enzymatic activity = THP-1 IC50 nM/Delta Ki nM)” value is 4.9. Besides, on PI3Kδ [3], the IC50 is 1.6 nM and the Ki was determined as 0.8 nM.
